The record followed here is paper PMC6230509 (Neuropharmacology, 2018).

One assay deals with T1, 5-HT1A (Homo sapiens, UniProt P08908).
T1 sequence (P08908 1-422): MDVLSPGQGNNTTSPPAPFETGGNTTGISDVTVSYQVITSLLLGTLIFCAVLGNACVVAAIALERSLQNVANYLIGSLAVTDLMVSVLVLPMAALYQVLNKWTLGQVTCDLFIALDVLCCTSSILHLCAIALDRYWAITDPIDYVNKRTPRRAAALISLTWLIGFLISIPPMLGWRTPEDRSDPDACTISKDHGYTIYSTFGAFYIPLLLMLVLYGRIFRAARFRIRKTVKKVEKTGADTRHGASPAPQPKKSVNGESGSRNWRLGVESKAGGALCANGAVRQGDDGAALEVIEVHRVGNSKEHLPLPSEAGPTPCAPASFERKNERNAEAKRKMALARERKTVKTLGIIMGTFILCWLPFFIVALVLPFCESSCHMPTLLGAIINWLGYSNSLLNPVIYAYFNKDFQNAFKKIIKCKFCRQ
In words: NIMH PDSP radioligand competition binding, 5-HT1A. Background: Loss of bound radioactivity is the signal in a displacement assay; it reports binding, not function.

The target in another assay is 5-HT1B (Homo sapiens, UniProt P28222). In words: NIMH PDSP radioligand competition binding, 5-HT1B.
The target in a further assay is 5-HT1D (Homo sapiens, UniProt P28221). Kind of assay: NIMH PDSP radioligand competition binding, 5-HT1D.
Another assay deals with 5-HT1E (Homo sapiens, UniProt P28566). In words: NIMH PDSP radioligand competition binding, 5-HT1E.
The target of another assay is 5-HT2B (Homo sapiens, UniProt P41595). In words: NIMH PDSP radioligand competition binding, 5-HT2B.
The target in a further assay is T2, 5-HT2C (Homo sapiens, UniProt P28335).
T2 sequence (P28335 33-458): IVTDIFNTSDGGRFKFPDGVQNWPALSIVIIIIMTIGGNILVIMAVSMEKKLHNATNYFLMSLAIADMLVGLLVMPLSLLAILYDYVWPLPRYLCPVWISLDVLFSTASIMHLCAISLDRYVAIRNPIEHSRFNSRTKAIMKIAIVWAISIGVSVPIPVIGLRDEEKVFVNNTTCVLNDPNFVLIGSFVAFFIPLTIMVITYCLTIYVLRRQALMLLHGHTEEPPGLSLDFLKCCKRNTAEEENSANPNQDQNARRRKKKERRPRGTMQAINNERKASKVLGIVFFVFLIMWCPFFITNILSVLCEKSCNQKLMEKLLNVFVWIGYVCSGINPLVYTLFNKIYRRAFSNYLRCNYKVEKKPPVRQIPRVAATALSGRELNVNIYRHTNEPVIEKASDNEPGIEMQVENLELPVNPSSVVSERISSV
In words: NIMH PDSP radioligand competition binding, 5-HT2C.

The next assay addresses 5-HT5A (Homo sapiens, UniProt P47898). Kind of assay: NIMH PDSP radioligand competition binding, 5-HT5A.
Assay [1] has as its target serotonin transporter (SERT) (Homo sapiens, UniProt P31645). In words: NIMH PDSP radioligand competition binding, SERT.
Another assay concerns the target T3, α2C (Homo sapiens, UniProt P18825).
T3 sequence (P18825 1-462): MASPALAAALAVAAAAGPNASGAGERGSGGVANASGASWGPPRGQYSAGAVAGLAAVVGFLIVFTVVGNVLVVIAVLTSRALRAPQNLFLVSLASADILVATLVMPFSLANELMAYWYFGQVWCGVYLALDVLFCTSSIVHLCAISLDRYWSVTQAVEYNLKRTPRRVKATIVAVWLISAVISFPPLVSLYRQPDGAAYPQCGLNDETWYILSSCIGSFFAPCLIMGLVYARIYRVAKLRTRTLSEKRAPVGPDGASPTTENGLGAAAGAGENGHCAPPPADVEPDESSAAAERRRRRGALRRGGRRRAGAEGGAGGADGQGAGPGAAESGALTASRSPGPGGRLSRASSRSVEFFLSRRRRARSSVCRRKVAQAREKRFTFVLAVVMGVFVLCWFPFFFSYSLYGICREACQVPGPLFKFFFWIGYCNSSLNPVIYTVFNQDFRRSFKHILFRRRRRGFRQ
In words: NIMH PDSP radioligand competition binding, α2C.

The next assay has as its target D2 (Homo sapiens, UniProt P14416). Kind of assay: NIMH PDSP radioligand competition binding, D2.
For another assay, the target named is T4, D4 (Homo sapiens, UniProt P21917).
T4 sequence (P21917 1-419): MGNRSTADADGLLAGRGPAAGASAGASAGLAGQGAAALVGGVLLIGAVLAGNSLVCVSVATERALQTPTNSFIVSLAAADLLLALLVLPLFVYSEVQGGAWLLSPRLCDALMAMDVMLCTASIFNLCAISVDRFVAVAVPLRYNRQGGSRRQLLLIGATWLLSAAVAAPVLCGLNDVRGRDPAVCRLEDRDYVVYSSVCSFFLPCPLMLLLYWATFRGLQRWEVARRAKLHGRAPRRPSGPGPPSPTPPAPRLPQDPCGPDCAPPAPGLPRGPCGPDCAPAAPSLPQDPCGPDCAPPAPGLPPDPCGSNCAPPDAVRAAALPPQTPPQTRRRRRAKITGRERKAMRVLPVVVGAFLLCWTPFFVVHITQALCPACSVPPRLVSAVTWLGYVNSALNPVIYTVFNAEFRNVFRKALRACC
Kind of assay: NIMH PDSP radioligand competition binding, D4. The following applies: Binding Affinity (Ki, nM), [3H]N-methylspiperone, cloned human receptor.

Assay [2] concerns the target peripheral benzodiazepine receptor (PBR) (Rattus norvegicus, UniProt P16257). Kind of assay: NIMH PDSP radioligand competition binding, PBR. The conditions noted are these: Binding Affinity (Ki, nM), PBR; [3H]PK11195; rat kidney, natively expressed.
Another assay has as its target H1 (Homo sapiens, UniProt P35367). Kind of assay: NIMH PDSP radioligand competition binding, H1.
Assay [3] has as its system head twitch response (5-HT2A receptor-mediated). In words: Head twitch response. In kind it is in vivo, C57BL/6J mice.

The Ki is a measure of affinity in units of concentration, obtained from inhibition or displacement. High values mean lower affinity, low ones higher affinity. Take `C=CCN(CC=C)CCc1c[nH]c2c(CC)cccc12` [7-Et-DALT, 7-ethyl-N,N-diallyltryptamine]: the Ki at 5-HT1A is 1010 nM; at 5-HT1B, more than 10000 nM; at 5-HT1D, 2690 nM; on 5-HT1E, more than 10000 nM; at 5-HT2B it was 65 nM; on 5-HT2C, 443 nM. Besides, the Ki on 5-HT5A is more than 10000 nM; in assay [1], 795 nM; at α2C, 682 nM; at D2, more than 10000 nM; at D4 it was more than 10000 nM; in assay [2], more than 10000 nM. The same molecule displayed a Ki on H1 of 913 nM. For the same molecule, the “HTR Counts (mean ± SEM)” value in assay [3] (15 mg/kg IP, duration 30 min) is given as 9.8 ± 1.8. The “activity in the HTR assay (in words)” value in assay [3] (C57BL/6J mice, IP, within the dose range tested) is given as “did not induce the HTR”.
